This note sets out measurements from ChEMBL document CHEMBL1201862, “PubChem BioAssay data set” (2004).

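All cell lines were grown in 96-well plates and treated with compound for 48 hours. GI50 marks 50% less growth.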 The source made the active and inactive calls. Cut-off read from the data, not from the text of the source: active = GI50 up to about 1.1 µM and inactive = higher.

Among the test systems are U-251; NCI/ADR-RES; SF-268; HCT-15; MCF7; Malme-3M; UO-31; RXF 393; COLO 205; NCI-H23; SK-OV-3; SK-MEL-28; IGROV-1; NCI-H522; OVCAR-4; HCT-116; K562; OVCAR-5; M14; MDA-MB-435.
Holding throughout (assay): growth of human tumour cells (NCI), 48 h

For the compound `Cc1ccc(S(=O)(=O)NC(=O)NC2=NC(C)(C)N(c3ccc(Cl)c(Cl)c3)C(N)=N2)cc1`, the GI50 with U-251 is 5.68 µM (inactive); with NCI/ADR-RES, > 100 µM (inactive); in the assay on SF-268, 20.5 µM (inactive); with HCT-15, 61.2 µM; with MCF7, 25.8 µM (inactive); in the assay on Malme-3M, 4.01 µM (inactive). For the same compound, the GI50 in the assay on UO-31 was > 100 µM (inactive); with RXF 393, 66.7 µM (inactive); in the assay on COLO 205, 10.2 µM (inactive); with NCI-H23 it was 11.4 µM (inactive); with SK-OV-3 it was > 100 µM (inactive); with SK-MEL-28, > 100 µM (inactive). The GI50 is 19 µM (inactive) in the assay on IGROV-1; > 100 µM (inactive) with NCI-H522; > 100 µM (inactive) in the assay on OVCAR-4; 3.72 µM (inactive) with HCT-116; 1.94 µM (inactive) in the assay on K562; > 100 µM (inactive) in the assay with OVCAR-5. Besides, the GI50 in the assay with M14 is 17.6 µM (inactive).

As for `CN(CCCNC(=O)c1cn(C)c2c1ccc1ccccc12)CCCNC(=O)c1cn(C)c2c1ccc1ccccc12`, the GI50 was 2.4 µM (inactive) with U-251; 1.77 µM (inactive) in the assay with NCI/ADR-RES; 1.49 µM (inactive) in the assay with SF-268; 1.73 µM in the assay on HCT-15; 1.44 µM (inactive) in the assay on UO-31; 1.65 µM (inactive) with RXF 393. Further, the GI50 is 1.75 µM (inactive) in the assay on COLO 205; 1.51 µM (inactive) in the assay with NCI-H23; 1.69 µM (inactive) in the assay with SK-MEL-28; 1.11 µM (active) in the assay with IGROV-1; 9.35 µM (inactive) in the assay on OVCAR-4; 2.06 µM (inactive) with MDA-MB-435. Also, the GI50 in the assay on HCT-116 was 1.49 µM (inactive); with M14, 1.58 µM (inactive).

Regarding `CCOC(=O)CC1=N/C(=N/C(=N)N[N+](=O)[O-])SC1`, the GI50 in the assay with U-251 is > 100 µM (inactive); with SF-268, > 100 µM (inactive); in the assay on HCT-15, over 100 µM; with Malme-3M, > 100 µM (inactive); with UO-31, > 100 µM (inactive); in the assay on RXF 393 it was > 100 µM (inactive). Also, the GI50 in the assay on COLO 205, with NCI-H23, in the assay on SK-OV-3, in the assay with SK-MEL-28, in the assay with IGROV-1 and in the assay with NCI-H522 was > 100 µM (inactive) throughout. The GI50 in the assay with OVCAR-4, in the assay with HCT-116, in the assay on K562, with OVCAR-5 and with M14 was > 100 µM (inactive) in each case.

In the case of `OC12CCCCCC1(N1CCOCC1)c1ccccc12` (stereo not given), the GI50 in the assay on U-251 was > 100 µM (inactive); in the assay with SF-268 it was > 100 µM (inactive); with HCT-15, over 100 µM; in the assay on Malme-3M, > 100 µM (inactive); in the assay on UO-31 it was > 100 µM (inactive); in the assay with RXF 393, > 100 µM (inactive). Besides, the GI50 in the assay with COLO 205, in the assay with NCI-H23, in the assay on SK-OV-3, with SK-MEL-28, in the assay on IGROV-1 and in the assay with NCI-H522 was > 100 µM (inactive) throughout. Further, the GI50 in the assay on OVCAR-4, in the assay on HCT-116, in the assay on K562, in the assay on OVCAR-5 and in the assay on M14 was > 100 µM (inactive) in each case.

Consider `O=C(Cc1ccccc1)NN1C(=O)C(Cl)C1c1cc(Br)cc(Br)c1O` (stereo not given), for which the GI50 in the assay with U-251 is 13 µM (inactive); in the assay on SF-268, 3.63 µM (inactive); with HCT-15 it was 6.79 µM; with Malme-3M, 17.7 µM (inactive); with UO-31, 4.11 µM (inactive); with RXF 393 it was 17.7 µM (inactive). Moreover, the GI50 in the assay with COLO 205 is 21.3 µM (inactive); in the assay on NCI-H23 it was 12.2 µM (inactive); in the assay on SK-OV-3 it was 15.1 µM (inactive); in the assay with SK-MEL-28 it was 10.3 µM (inactive); in the assay on IGROV-1 it was 13.1 µM (inactive); in the assay with NCI-H522 it was 3.8 µM (inactive). The GI50 with OVCAR-4 is 13 µM (inactive); in the assay on HCT-116, 3.21 µM (inactive); in the assay with K562, 6.44 µM (inactive); in the assay on OVCAR-5, 16.1 µM (inactive); in the assay on M14, 14.8 µM (inactive).

As to `C/C(=C\C(=O)Nc1ccc2[nH]nnc2c1)Nc1ccc2[nH]nnc2c1`, the GI50 in the assay with U-251 is > 100 µM (inactive); in the assay with SF-268 it was > 100 µM (inactive); with HCT-15 it was over 100 µM; in the assay with Malme-3M, > 100 µM (inactive); in the assay on UO-31 it was > 100 µM (inactive); in the assay with RXF 393 it was > 100 µM (inactive). In addition, the GI50 in the assay with COLO 205, with NCI-H23, in the assay on SK-OV-3, with SK-MEL-28, in the assay on IGROV-1 and with NCI-H522 was > 100 µM (inactive) in each case. Also, the GI50 in the assay on OVCAR-4, in the assay on HCT-116, in the assay on K562, in the assay with OVCAR-5 and in the assay on M14 was > 100 µM (inactive) each time.

Take `O=[N+]([O-])c1ccc(-n2nnc(C3=NCCCN3)c2-c2ccc(Cl)cc2)cc1`: the GI50 in the assay with U-251 is > 100 µM (inactive); with SF-268 it was > 100 µM (inactive); with HCT-15 it was over 100 µM; in the assay on Malme-3M, > 100 µM (inactive); with UO-31, 42.3 µM (inactive); in the assay with RXF 393, 73.1 µM (inactive). For the same compound, the GI50 with COLO 205 is 30.5 µM (inactive); in the assay with NCI-H23 it was > 100 µM (inactive); with SK-OV-3, > 100 µM (inactive); in the assay with SK-MEL-28, 32.7 µM (inactive); in the assay on IGROV-1 it was > 100 µM (inactive); in the assay on NCI-H522 it was > 100 µM (inactive). In addition, the GI50 is > 100 µM (inactive) in the assay on OVCAR-4; 89.1 µM (inactive) with HCT-116; 61.1 µM (inactive) in the assay on K562; > 100 µM (inactive) in the assay with OVCAR-5; 54 µM (inactive) in the assay on M14.

As for `Cc1ccc(S(=O)(=O)NC(=O)NCC(N)=O)cc1`, the GI50 in the assay with U-251 was > 100 µM (inactive); with NCI/ADR-RES, > 100 µM (inactive); in the assay on SF-268, > 100 µM (inactive); in the assay with HCT-15, over 100 µM; in the assay with MCF7, > 100 µM (inactive); in the assay on Malme-3M, > 100 µM (inactive). For the same compound, the GI50 in the assay on UO-31, in the assay with RXF 393, with COLO 205, with NCI-H23, in the assay on SK-OV-3 and with SK-MEL-28 was > 100 µM (inactive) each time. The GI50 in the assay on IGROV-1, in the assay with NCI-H522, in the assay with OVCAR-4, in the assay on HCT-116, in the assay on K562 and in the assay on OVCAR-5 was > 100 µM (inactive) throughout. For the same compound, the GI50 with M14 is > 100 µM (inactive).

`O=C(c1ccccc1)N1C(=S)NC(=N/c2ccccc2)/C1=N\c1ccccc1`: the GI50 in the assay on U-251 was > 100 µM (inactive); with NCI/ADR-RES it was > 100 µM (inactive); in the assay on SF-268, > 100 µM (inactive); in the assay with HCT-15, over 100 µM; in the assay with Malme-3M, > 100 µM (inactive); with UO-31 it was > 100 µM (inactive). In addition, the GI50 is 33.9 µM (inactive) with RXF 393; > 100 µM (inactive) in the assay on COLO 205; > 100 µM (inactive) with NCI-H23; > 100 µM (inactive) in the assay on SK-OV-3; > 100 µM (inactive) in the assay on SK-MEL-28; > 100 µM (inactive) with IGROV-1. Further, the GI50 in the assay on NCI-H522, with OVCAR-4, in the assay on MDA-MB-435, with HCT-116, with K562 and with OVCAR-5 was > 100 µM (inactive) throughout.

Consider `CC(C)(O)[C@@H]1CCC(C)([C@H]2[C@@H](O)CC3(C)C4CC(OC5OC(CO)C(O)C(O)C5O)C5C(C)(C)[C@@H](OC6OCC(O)C(O)C6O)CC[C@@]56C[C@@]46CC[C@]23C)O1` (stereo not given in full), for which the GI50 in the assay with U-251 is > 100 µM (inactive); in the assay on SF-268, > 100 µM (inactive); in the assay with HCT-15, over 100 µM; with Malme-3M, > 100 µM (inactive); with UO-31 it was > 100 µM (inactive); with RXF 393 it was > 100 µM (inactive). The GI50 in the assay on COLO 205, in the assay on NCI-H23, with SK-OV-3, in the assay with SK-MEL-28, in the assay with IGROV-1 and in the assay on NCI-H522 was > 100 µM (inactive) in each case. Further, the GI50 with OVCAR-4, in the assay on HCT-116, with K562, with OVCAR-5 and in the assay with M14 was > 100 µM (inactive) throughout.

For `CNc1nc(OC)c2c(n1)n(C)c[n+]2C` [HETEROMINE B], the GI50 in the assay with U-251 is 45.7 µM (inactive); in the assay on NCI/ADR-RES, > 100 µM (inactive); in the assay with SF-268, > 100 µM (inactive); in the assay with HCT-15, over 100 µM; in the assay on Malme-3M, > 100 µM (inactive); in the assay on UO-31, > 100 µM (inactive). Besides, the GI50 in the assay on RXF 393, in the assay on COLO 205, with NCI-H23, with SK-OV-3, in the assay on SK-MEL-28 and in the assay on IGROV-1 was > 100 µM (inactive) each time. The GI50 with NCI-H522 is 31.7 µM (inactive); with MDA-MB-435, > 100 µM (inactive); in the assay on HCT-116, > 100 µM (inactive); in the assay with K562, > 100 µM (inactive); in the assay on OVCAR-5, > 100 µM (inactive); in the assay on M14, > 100 µM (inactive).
